# Source: ChEMBL document CHEMBL1147675, “Optimization of subsite binding to the beta5 subunit of the human 20S proteasome using vinyl sulfones and 2-keto-1,3,4-oxadiazoles: syntheses and cellular properties of potent, selective proteasome inhibitors” (J Med Chem, 2006)
# Peptide text beside a SMILES is read from it. * marks the point of attachment. Cbz = O=C(OCc1ccccc1)*; OtBu = CC(C)(C)O*
# Assays:
# in vitro = conditions: human, plasma
# Description: Stability in human plasma after 120 mins
# physchem = conditions: PBS, pH 7.4
# Description: Solubility in PBS at pH 7.4
# Cathepsin B = Cathepsin B (Homo sapiens, UniProt P07858)
# Description: Inhibition of cathepsin B
# Cathepsin S = Cathepsin S (Homo sapiens, UniProt P25774)
# Cathepsin S, sequence (P25774 whole entry): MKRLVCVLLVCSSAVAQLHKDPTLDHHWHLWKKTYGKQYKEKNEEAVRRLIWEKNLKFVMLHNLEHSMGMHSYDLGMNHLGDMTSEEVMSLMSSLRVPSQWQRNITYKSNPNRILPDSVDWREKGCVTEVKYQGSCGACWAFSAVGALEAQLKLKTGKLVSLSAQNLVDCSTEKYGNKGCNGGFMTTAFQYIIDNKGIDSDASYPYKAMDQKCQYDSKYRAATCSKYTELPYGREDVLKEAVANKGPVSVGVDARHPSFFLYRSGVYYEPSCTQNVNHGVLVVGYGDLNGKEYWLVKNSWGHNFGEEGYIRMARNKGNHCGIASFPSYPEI
# Description: Inhibition of cathepsin S
# PC-3 = test: cells; conditions: Homo sapiens
# Description: Antiproliferative activity against human PC3 cell line
Compound,remaining at 2 h (in vitro),solubility (physchem),IC50 (Cathepsin B),IC50 (Cathepsin S),IC50 (PC-3),Ki (Cathepsin B),Ki (Cathepsin S)
CC(C)C[C@@H](/C=C/S(C)(=O)=O)NC(=O)[C@H](C)NC(=O)[C@H](CCC(=O)OC(C)(C)C)NC(=O)c1ccccc1,–,–,–,–,1.75 µM,–,–
CC[C@H](C)[C@H](NC(=O)OCc1ccccc1)C(=O)N[C@@H](CCC(N)=O)C(=O)N[C@@H](C)C(=O)N[C@H](/C=C/S(C)(=O)=O)CC(C)C,–,–,54 µM,48 µM,–,–,–
CC(C)C[C@@H](/C=C/S(C)(=O)=O)NC(=O)[C@H](CO)NC(=O)[C@H](CCC(=O)OC(C)(C)C)NS(=O)(=O)c1ccccc1,–,–,–,–,4 µM,–,–
CC(C)C[C@@H](/C=C/S(C)(=O)=O)NC(=O)[C@H](C)NC(=O)[C@H](CCC(=O)OC(C)(C)C)NC(=O)OCc1ccccc1,1%,< 10 µM,20 µM,3 µM,6.5 µM,–,–
CC[C@H](C)[C@H](NC(=O)OCc1ccccc1)C(=O)N1CCC[C@H]1C(=O)N[C@@H](C)C(=O)N[C@H](/C=C/S(C)(=O)=O)CC(C)C,–,–,23 µM,13 µM,–,–,–
CC[C@H](C)[C@H](NC(=O)OCc1ccccc1)C(=O)N[C@@H](CCCC(=O)OC(C)(C)C)C(=O)N[C@@H](C)C(=O)N[C@H](/C=C/S(C)(=O)=O)CC(C)C,20%,–,18 µM,7.1 µM,–,–,–
CC(=O)N[C@@H](CCc1ccccc1)C(=O)N[C@@H](CC(C)C)C(=O)N[C@H](C)C(=O)N[C@H](/C=C/S(C)(=O)=O)CC(C)C,–,–,> 150 µM,77 µM,–,–,–
CC[C@H](C)[C@H](NC(=O)OCc1ccccc1)C(=O)N[C@@H](CC(=O)OC(C)(C)C)C(=O)N[C@@H](C)C(=O)N[C@H](/C=C/S(C)(=O)=O)CC(C)C,–,–,–,–,3.25 µM,–,–
CC(=O)N[C@@H](CCc1ccccc1)C(=O)N[C@@H](CC(C)C)C(=O)N[C@@H](C)C(=O)N[C@H](/C=C/S(C)(=O)=O)CC(C)C,–,–,1.6 µM,6.9 µM,–,–,–
CC[C@H](C)[C@H](NC(=O)OCc1ccccc1)C(=O)N[C@@H](CCC(=O)NC(C)(C)C)C(=O)N[C@@H](C)C(=O)N[C@H](/C=C/S(C)(=O)=O)CC(C)C,89%,57 µM,51 µM,3.3 µM,5000 µM,–,–
Cc1ccc(S(=O)(=O)N[C@@H](CC(=O)NCC(C)(C)C)C(=O)N[C@@H](C)C(=O)N[C@H](/C=C/S(C)(=O)=O)CC(C)C)cc1,96%,470 µM,–,–,–,–,–
CC[C@H](C)[C@H](NC(=O)OCc1ccccc1)C(=O)N[C@@H](CCC(=O)OC(C)(C)C)C(=O)N[C@@H](C)C(=O)N[C@H](C=O)CC(C)C (Cbz-IE(OtBu)AL-aldehyde),–,–,–,–,0.375 µM,–,–
Cc1ccc(S(=O)(=O)N[C@@H](CC(=O)NCC(C)(C)C)C(=O)NC(C)(C)C(=O)N[C@H](/C=C/S(C)(=O)=O)CC(C)C)cc1,100%,500 µM,–,–,–,–,–
CC[C@H](C)[C@H](NC(=O)OCc1ccccc1)C(=O)N[C@@H](CCc1ccccc1)C(=O)N[C@@H](C)C(=O)N[C@H](/C=C/S(C)(=O)=O)CC(C)C,22%,< 10 µM,41 µM,10 µM,0.6 µM,–,–
CC[C@H](C)[C@H](NC(=O)OCc1ccccc1)C(=O)N[C@@H](Cc1ccccc1)C(=O)N[C@@H](C)C(=O)N[C@H](/C=C/S(C)(=O)=O)CC(C)C,–,–,27 µM,9 µM,–,–,–
CC(=O)N[C@@H](CCc1ccccc1)C(=O)N[C@@H](CC(C)C)C(=O)NCC(=O)N[C@H](/C=C/S(C)(=O)=O)CC(C)C,–,–,> 150 µM,12 µM,–,–,–
CC[C@H](C)[C@H](NC(=O)OCc1ccccc1)C(=O)N[C@@H](CCC(=O)NC(C)(C)CC)C(=O)N[C@@H](C)C(=O)N[C@H](/C=C/S(C)(=O)=O)CC(C)C,83%,20 µM,–,–,0.55 µM,–,–
Cc1ccc(S(=O)(=O)N[C@@H](CC(=O)NCC(C)(C)C)C(=O)N[C@@H](C)C(=O)N[C@@H](CC(C)C)C(=O)c2nnc(-c3ccc(N(C)C)cc3)o2)cc1,72%,< 10 µM,–,–,–,–,–
CC[C@H](C)[C@H](NC(=O)OCc1ccccc1)C(=O)N[C@@H](CC(C)C)C(=O)N[C@@H](C)C(=O)N[C@H](/C=C/S(C)(=O)=O)CC(C)C,66%,–,5.8 µM,0.7 µM,0.8 µM,–,–
CC(C)C[C@@H](/C=C/S(C)(=O)=O)NC(=O)CNC(=O)[C@H](CCC(=O)OC(C)(C)C)NC(=O)OCc1ccccc1,–,–,> 150 µM,21 µM,–,–,–

# Next, values leading:
remaining at 2 h (in vitro),solubility (physchem),IC50 (Cathepsin B),IC50 (Cathepsin S),IC50 (PC-3),Ki (Cathepsin B),Ki (Cathepsin S),Compound
28%,< 10 µM,–,–,–,–,–,Cc1cccc(S(=O)(=O)N[C@@H](CC(=O)NCC(C)(C)C)C(=O)N[C@@H](C)C(=O)N[C@@H](CC(C)C)C(=O)c2nnc(-c3ccccc3)o2)c1
7%,48 µM,13 µM,67 µM,0.5 µM,–,–,Cc1ccc(S(=O)(=O)N[C@@H](CCC(=O)OC(C)(C)C)C(=O)N[C@@H](C)C(=O)N[C@H](/C=C/S(C)(=O)=O)CC(C)C)cc1
1%,< 10 µM,–,–,0.5 µM,–,–,CC(C)C[C@@H](/C=C/S(C)(=O)=O)NC(=O)[C@H](C)NC(=O)[C@H](CCC(=O)OC(C)(C)C)NC(=O)C(c1ccccc1)c1ccccc1
–,–,> 150 µM,12 µM,–,–,–,CC[C@H](C)[C@H](NC(=O)OCc1ccccc1)C(=O)N[C@@H](CS(=O)(=O)Cc1ccccc1)C(=O)N[C@@H](C)C(=O)N[C@H](/C=C/S(C)(=O)=O)CC(C)C
89%,–,> 150 µM,41 µM,3000 µM,–,–,CC[C@H](C)[C@H](NC(=O)OCc1ccccc1)C(=O)N[C@@H](CCC(=O)NC(C)C)C(=O)N[C@@H](C)C(=O)N[C@H](/C=C/S(C)(=O)=O)CC(C)C
100%,249 µM,–,–,–,–,–,Cc1ccc(S(=O)(=O)N[C@@H](CC(=O)NCC(C)(C)C)C(=O)N[C@@H](C)C(=O)NC(C)(C)C(=O)c2nnc(-c3ccccc3)o2)cc1
83%,–,38 µM,35 µM,0.45 µM,–,–,CC[C@H](C)[C@H](NC(=O)OCc1ccccc1)C(=O)N[C@@H](COCc1ccccc1)C(=O)N[C@@H](C)C(=O)N[C@H](/C=C/S(C)(=O)=O)CC(C)C
99%,381 µM,> 150 µM,> 150 µM,2.4 µM,–,–,Cc1ccc(S(=O)(=O)N[C@@H](CC(=O)NCC(C)(C)C)C(=O)N[C@@H](CO)C(=O)N[C@H](/C=C/S(C)(=O)=O)CC(C)C)cc1
–,–,–,–,0.6 µM,0.012 µM,–,CC(C)C[C@@H](C=O)NC(=O)[C@H](CC(C)C)NC(=O)[C@H](CC(C)C)NC(=O)OCc1ccccc1 [MG-132] (Cbz-Leu-Leu-Leu-aldehyde)
79%,37 µM,–,–,–,44 µM,8.1 µM,COC[C@H](NC(=O)[C@H](CC(=O)NCC(C)(C)C)NS(=O)(=O)c1ccc(C)cc1)C(=O)N[C@@H](CC(C)C)C(=O)c1nnc(-c2ccccc2)o1
86%,13 µM,–,–,–,72 µM,39 µM,Cc1ccc(S(=O)(=O)N[C@@H](CC(=O)NCC(C)(C)C)C(=O)N[C@@H](C)C(=O)N[C@@H](CC(C)C)C(=O)c2nnc(-c3ccccc3)o2)cc1
–,–,77 µM,170 µM,7.5 µM,–,–,CC(=O)N[C@@H](CCC(=O)OC(C)(C)C)C(=O)N[C@@H](C)C(=O)N[C@H](/C=C/S(C)(=O)=O)CC(C)C
52%,< 10 µM,29 µM,36 µM,2 µM,–,–,CC[C@H](C)[C@H](NC(=O)OCc1ccccc1)C(=O)N[C@@H](CCC(=O)OC(C)(C)C)C(=O)N[C@@H](C)C(=O)N[C@H](/C=C/S(C)(=O)=O)CC(C)C
–,–,–,–,–,18 µM,0.046 µM,CC(C)C[C@@H](C#N)NC(=O)[C@H](CC(C)C)NC(=O)[C@H](CC(C)C)NC(=O)OCc1ccccc1
–,–,140 µM,13 µM,–,–,–,CC[C@H](C)[C@H](NC(=O)OCc1ccccc1)C(=O)N[C@@H](CS(C)(=O)=O)C(=O)N[C@@H](C)C(=O)N[C@H](/C=C/S(C)(=O)=O)CC(C)C
90%,< 10 µM,–,–,0.2 µM,–,–,CC[C@H](C)[C@H](NC(=O)OCc1ccccc1)C(=O)N[C@@H](CC(=O)NCC(C)(C)C)C(=O)N[C@@H](C)C(=O)N[C@H](/C=C/S(C)(=O)=O)CC(C)C
100%,–,0.85 µM,0.15 µM,3 µM,–,–,CC(=O)N[C@@H](CCc1ccccc1)C(=O)N[C@@H](CC(C)C)C(=O)N[C@@H](Cc1ccccc1)C(=O)N[C@H](/C=C/S(C)(=O)=O)CC(C)C
–,–,–,–,3 µM,–,–,CC(C)C[C@@H](/C=C/S(C)(=O)=O)NC(=O)[C@H](CO)NC(=O)[C@H](CCC(=O)OC(C)(C)C)NC(=O)OCc1ccccc1
0%,–,–,–,–,–,–,CC[C@H](C)[C@H](NC(=O)OCc1ccccc1)C(=O)N[C@@H](CCC(=O)OC1CCCCC1)C(=O)N[C@@H](C)C(=O)N[C@H](/C=C/S(C)(=O)=O)CC(C)C
